This note sets out measurements from a melting point compilation (Tetko et al.; mined from patent text by program, amines drawn as free bases though some values may be those of a salt).

Molecules are shown by their SMILES. Bounds are passed on as bounds.

Broadly, the melting point is the temperature of the solid-liquid transition. With `Cn1c(N2CC3CC2CN3C(=O)c2ccccc2)nc(-c2ccncn2)cc1=O` (stereo not drawn), the melting point fell in the range of 133 to 135 °C.

Regarding `CCN(CC)C(=O)Cc1ccc(NC(=O)/C=C/c2cnn(C)c2-c2ccc(F)cc2)cc1`, the melting point lay in the range of 175 to 176 °C.

Regarding `COc1ccc(C(=O)Oc2ccccc2)nc1C`, the melting point was in the range of 103 to 105 °C.

In the case of `CCCOc1ccc(S(=O)(=O)N2CCN(CC)CC2)cc1-c1nc2cc3ncn(Cc4ccc(F)cc4)c3cc2c(=O)[nH]1`, the melting point fell in the range of 155 to 158 °C.

As for `CCCCc1ncc(C=C2C(=O)Nc3ccccc32)n1Cc1ccc(C(=O)O)cc1`, the melting point fell in the range of 237 to 238 °C.

In turn, `Cc1ccc(CN(C(=O)C2CC2)c2nc(C)no2)cc1` had a melting point of 49.5 to 50.5 °C.

`O=C(O)c1ccc2c([N+](=O)[O-])c(O)c(O)cc2c1` registered a melting point greater than 310 °C.

In turn, `CCOc1cccc(C)c1S(=O)(=O)NC(=O)n1nc(OCC)n(C)c1=O` came in with a melting point of 160 °C.

For `O=C(N[C@@H](Cc1c[nH]c2ccccc12)C(=O)O)c1ccc(Cl)cc1`, the melting point lay within 100 to 102 °C.

Consider `Cc1cnc(N)c(Br)n1`, for which the melting point is 51 to 52 °C.

`CCCCOc1c(C(OC(N)=O)C(C)(C)C)n(CC(C)(C)C)c(=O)c2ccc(OCC)cc12` (stereo not drawn): the melting point is 138 to 139 °C.

For `OCCON=Cc1cnc2ccccc2c1`, the melting point came to 129 °C.

On to `Cn1c(C(F)F)nn(-c2cc(OCC(N)=O)c(Cl)cc2Cl)c1=O`, for which the melting point lay within 190 to 194 °C.

With `CCc1c(O)ccc2c1CCCC2`, the melting point was in the range of 94 to 95 °C.

For `O=C(Nc1cccnc1)c1cccc(-c2ccc3c(c2)C(Oc2ccc(Cl)cc2Cl)CC3)c1` (stereo not drawn), the melting point lay in the range of 188 to 189 °C.

Take `O=C(O)c1ccc(OCCNC(=O)C2Cc3ccccc3N2S(=O)(=O)c2ccc(-c3cccc(C(F)(F)F)c3)cc2)c(Cl)c1` (stereo not drawn): the melting point fell in the range of 135 to 140 °C.

As to `NC(=O)c1ccc(OCCNCC(O)COc2ccc(-c3csnn3)cc2)cc1` (stereo not drawn), the melting point is 173 to 174 °C.

With `NCCOc1ccc(C=CC(=O)N2CCc3c([nH]c4ccccc34)C2c2ccc3c(c2)CCO3)cc1` (stereo not drawn), the melting point turned out to be 186 °C.

Compound `O=C(c1ccc(CN2CC=CCC2)cc1)N1CCN2C(=O)OC(c3ccccc3)(c3ccccc3)C2C1` (stereo not drawn) came in with a melting point of 189 to 191 °C.

`CN1C(=O)C(NC(=O)CCc2ccc(Cl)cc2Cl)N=C(c2ccccc2)c2ccncc21` (stereo not drawn) showed a melting point of 220 to 221 °C.

On to `N#Cc1c[nH]c2ccccc2c1=O`, for which the melting point fell in the range of 290 to 300 °C.

Consider `CC#CNC(=O)NC(=NC(=O)NCCCCCCCC)SC`, for which the melting point lay within 123 to 125 °C.

`Cc1cc(-c2cc(F)c(F)cc2-c2ccc(S(C)(=O)=O)cc2)ccc1Cl` yielded a melting point of 152 °C.

In the case of `CC(C(N)=O)c1ccc(Oc2ccccc2F)cc1` (stereo not drawn), the melting point fell in the range of 106 to 108 °C.

Turning to `Cc1nnc(-c2sc(N3CCN(Cc4ccc(C(F)(F)F)cc4)C3=O)nc2C)[nH]1`, the melting point was 273 to 274 °C.

As for `Cc1c(CO)oc2c(Br)cccc12`, the melting point was found to be 103 °C.

`O=C1CCC(N2Cc3c(OCc4ccc(Cn5cnnc5)cc4)cccc3C2=O)C(=O)N1` (stereo not drawn) registered a melting point of 173 to 175 °C.

`CCc1cccc2c3c([nH]c12)C(CC)(CC(=O)OC)OCC3NC=O` (stereo not drawn) showed a melting point of 154 to 156 °C.

For the compound `COC(=O)CCCCCCNC(=O)C(CS)Cc1ccccc1` (stereo not drawn), the melting point lay within 68 to 70 °C.

As to `CCOC(=O)C(OC)C(=O)Nc1ccc(Br)cc1C` (stereo not drawn), the melting point fell in the range of 93 to 95 °C.

For the compound `COC(=O)C1CCC2C3CCC4CC(O)C(O)CC4(C)C3C(NCCC(C)C)CC12C` (stereo not drawn), the melting point fell in the range of 159 to 161 °C.

In turn, `C#CC1(O)C(C)CC2(CC1(C)C)OC(C)C(C)O2` (stereo not drawn) came in with a melting point of 79 to 83 °C.

`CCSc1cc(C)nc(SCC)c1NC(=O)CSc1nc2cccc(C(=O)OC)c2o1`: the melting point lay in the range of 168 to 169 °C.

In the case of `Cc1ncn(Nc2cccc(Cl)c2)c1-c1ccccc1`, the melting point was 218 °C.

`COc1ccc(C2=C(C=O)CCc3cc(OC)ccc32)cc1` showed a melting point of 104 to 105 °C.

In turn, `COc1ccc(CC2(C(=O)N[C@@H](Cc3ccc(NC(=O)c4c(Cl)cccc4Cl)cc3)C(=O)O)CCCCC2)cc1` yielded a melting point of 136 to 140 °C.

`O=C(N(c1ccccc1)c1nc(C(Cl)(Cl)Cl)ns1)C(Cl)(Cl)Cl` showed a melting point of 158 °C.

In turn, `CCCOCCOC(=O)C1=C(C)NC(C)=C(/C=C/S(=O)(=O)NC(C)C)C1c1cccc([N+](=O)[O-])c1` (stereo not drawn) showed a melting point of 152 to 154 °C.

Regarding `COc1ccc(-c2cc(C(=O)O)nnc2-c2ccc(OC)cc2)cc1`, the melting point was in the range of 157 to 158 °C.

The compound `OCc1cnc2ccc(F)cc2c1O` had a melting point of 310 to 315 °C.

In turn, `Cc1cccc(C2=CCN(CCCn3c(=O)[nH]c4c(Cl)cccc4c3=O)CC2)c1` showed a melting point of 214 to 216 °C.

With `Fc1ccc(C(OCCCN2CCN(C(c3ccccc3)c3ccccc3)CC2)c2ccc(F)cc2)cc1`, the melting point was in the range of 78 to 79 °C.

With `COc1ccc(-c2cnc(C3(c4ccc(OC)c(OC)c4)NCCc4c3[nH]c3ccccc43)nc2)cc1OC` (stereo not drawn), the melting point lay within 184 to 186 °C.

`COC(=O)C1NC(c2ccc(Cl)cc2)C/C(=N\OS(C)(=O)=O)C1(Cl)Cl` (stereo not drawn) registered a melting point of 60 to 62 °C.

In the case of `CSc1nnc(-c2ccccc2CS(N)(=O)=O)o1`, the melting point was in the range of 138 to 140 °C.

The compound `COc1cc(OCc2ccccn2)ccc1/C=C/c1cc(/C=C/c2ccc3[nH]nnc3c2)n[nH]1` gave a melting point of 113 to 120 °C.

`CC(C)(C)Nc1nc(Cl)cc(N2CCCC2)n1` gave a melting point of 153 to 157 °C.

With `Cn1cc(-c2cnc3c(c2)N(Cc2cc(Cl)ccc2C(F)(F)F)CCN3)cn1`, the melting point came to 156 °C.

Compound `Cc1ccc(S(=O)(=O)NC(=O)OCCc2ccc(-n3c(C(C)C)nc4cc(C(=O)N(C)C)c(Cl)cc43)cc2)cc1` returned a melting point of 173 to 176 °C.

The compound `Fc1cccc(CC[C@H]2CN(Cc3ccccc3)CCN2Cc2ccccc2)c1` gave a melting point of 69 to 71 °C.

Compound `N#Cc1[nH]n(C2CCCC2)c2nc(-c3ccncc3)nc(=O)c1-2` yielded a melting point greater than 300 °C.

As for `CC(C)(Oc1ccc(CCC(=O)c2ccc(-c3ccc(C(F)(F)F)cc3)o2)c(Cl)c1Cl)C(=O)O`, the melting point came out at 85 °C.

The compound `CNC(=O)c1[nH]c(C(C)(C)C)cc1NC(=O)Nc1ccc(C)cc1` returned a melting point of 164 to 166 °C.

As to `O=C(O)CCCc1oc(-n2cnc3ccccc32)nc1-c1ccc(Cl)cc1`, the melting point lay within 199 to 200 °C.

Turning to `O=C1c2ccccc2C(=O)N1CC(=O)N1c2ccccc2N(Cc2ccc3ccccc3n2)C(=O)[C@H]2CCC[C@H]21` (relative stereo), the melting point lay in the range of 258 to 260 °C.

`CCCCCCCCCCCCCCCCCC(=O)OC1CC(C)(C)N(OC(C)=O)C(CC)(CC)C1` (stereo not drawn) returned a melting point of 41 to 44 °C.

`N#CC(CBr)c1ccccc1` (stereo not drawn) gave a melting point of 63 °C.

The compound `COc1ccc(C(=O)COC(C)=O)cc1OC` registered a melting point of 82 to 84 °C.

`CCOC(=O)c1cccc(-c2nc(-c3cc(C)oc3C)cs2)c1` had a melting point of 100 to 101 °C.

Compound `COc1cc2[nH]cc(C(=O)Nc3cccnc3)c2cc1Br` gave a melting point greater than 250 °C.

`Cn1c(=O)c(C#N)c(N2CCN(C(=O)c3ccco3)CC2)c2cc(Cl)ccc21` registered a melting point of 228 °C.

Take `COC(=O)c1ccc(NC(=O)C(=Cc2ccccc2)C(=O)C(C)C)cc1`: the melting point fell in the range of 154 to 156 °C.

In turn, `CC(NC(=O)c1cccc([N+](=O)[O-])c1)C(F)(F)F` (stereo not drawn) had a melting point of 130 to 131 °C.

`COc1nc(C)nc(NC(=O)NS(=O)(=O)c2ccccc2OCC(Cl)CCl)n1` (stereo not drawn) displayed a melting point of 117 to 118 °C.

In the case of `COC(=O)c1cc2c(C)ccc(Cl)c2[nH]1`, the melting point lay in the range of 133 to 134 °C.

As to `CCOC(=O)C1CCc2c(sc3nc(CN4C(=O)COC4=O)c(Cl)c(-c4ccc(OC)cc4)c23)C1` (stereo not drawn), the melting point lay in the range of 118 to 119 °C.

`CCO/C(=C(/Oc1ccc(-c2ccc(Cl)cc2)cc1)n1ccnc1)C(C)(C)C` registered a melting point of 112 to 113 °C.

Turning to `O=c1ccn(-c2cc3[nH]c(=O)c(=O)[nH]c3cc2[N+](=O)[O-])cc1`, the melting point was greater than 300 °C.

The compound `CCCCCCCCC#CCC#CCC#CCS(=O)(=O)CC(=O)O` gave a melting point of 132 °C.

The compound `COC(=O)[C@H](C)N(C(=O)[C@H](CC(C)C)NC(=O)OC(C)(C)C)c1ccc(F)cc1` yielded a melting point of 121 to 122 °C.

`FC(F)(F)Sc1c(Cl)c(Cl)c(CBr)c(Cl)c1Cl` came in with a melting point of 117 to 118 °C.

On to `O=C(Nc1cc2ccccc2oc1=O)c1ccccc1NCc1ccncc1`, for which the melting point fell in the range of 195 to 197 °C.

`N#CCCN1C(=O)C(O)(c2cccc(Cl)c2)c2ccccc21` (stereo not drawn) had a melting point of 149 to 150 °C.

For the compound `COc1ccc2[nH]cc(-c3cc4c(OC)ccnc4[nH]3)c2c1`, the melting point lay within 294 to 295 °C.

Turning to `COc1ccc2c(c1)S(=O)(=O)N=CN2CCO`, the melting point was 160 to 162 °C.

`Cc1cc(C2=NN(C(=O)OC(C)(C)C)[C@H](C)Cc3cc4c(cc32)OCO4)cc(C)c1[N+](=O)[O-]` gave a melting point of 222 to 223 °C.

In turn, `N#CCCNCCCC(=O)O` came in with a melting point of 122 to 124 °C.

Regarding `CN1C(=O)CC[C@]2(C)c3ccc(-c4ccc(Cl)c(Cl)c4)cc3CC[C@@H]12`, the melting point fell in the range of 129 to 135 °C.

In turn, `CCOC(=O)c1ccc(-c2nc(COc3ccc(C=O)cc3OC)c(C)o2)s1` came in with a melting point of 155 to 156 °C.

With `COc1ccccc1N1CCN(CC(O)COc2ccc(OCc3ccccc3)c3ccccc23)CC1` (stereo not drawn), the melting point lay in the range of 143 to 145 °C.

`ClCCCn1c2ccccc2c2cc(-c3nc(-c4ccccc4)no3)ncc21` displayed a melting point of 192 to 195 °C.

The compound `C=CC(=O)Nc1ccc2ccc(Cl)nc2n1` displayed a melting point of 200 °C.

Compound `CCN(CCc1ccc(NS(C)(=O)=O)cc1)CCc1ccc(NS(C)(=O)=O)cc1` had a melting point of less than 60 °C.

For the compound `O=C(Nc1ccccn1)c1c(O)ccc2cc(-c3cccc(O)c3)ccc12`, the melting point turned out to be 140 °C.

On to `CC1CC(=O)NN=C1c1ccc(NC(=O)c2ccco2)cc1` (stereo not drawn), for which the melting point is 213 to 216 °C.

As to `COc1ccc(C(=O)n2c3c(c4cc(F)ccc42)CC(C(=O)O)CC3)cc1` (stereo not drawn), the melting point lay within 197 to 198 °C.

As for `Cc1cccc(-c2nc3cccnn3c2-c2ccnc(Nc3ccccc3C)c2)c1`, the melting point is 208 to 209 °C.

As to `O=C(O)CCC(F)(F)C(F)(F)CCC(=O)O`, the melting point amounted to 204 °C.
